Columns and labels:
GSTO1–1 = molecular target: T1, GSTO1–1 (Homo sapiens, UniProt P78417); settings: GSTO1–1 binding assay
T1 sequence (P78417 1-241): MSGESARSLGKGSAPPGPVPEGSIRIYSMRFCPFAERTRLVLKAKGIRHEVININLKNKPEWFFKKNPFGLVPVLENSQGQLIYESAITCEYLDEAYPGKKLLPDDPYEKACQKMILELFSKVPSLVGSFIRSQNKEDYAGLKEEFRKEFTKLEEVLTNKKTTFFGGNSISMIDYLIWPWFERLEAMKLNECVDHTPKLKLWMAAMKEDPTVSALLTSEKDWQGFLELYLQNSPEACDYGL

[1] = Stability in 20% acetonitrile/PBS buffer by LC–MS; format: physicochemical; settings: room temperature overnight
HCT116 = test: MTT cell viability assay, HCT116; format: cell-based; settings: read-out: IC50-MTT HCT116; HCT116, 72 h; values of two independent experiments

GSTO1–1 binding activity (in words) (GSTO1–1)	SMILES	also measured
inactive	C=CC(=O)Nc1nc(-c2ccccc2OC)cs1 [Compound 26, N-(4-(2-Methoxyphenyl)thiazol-2-yl)acrylamide]	
inactive	C=CC(=O)Nc1cnn(Cc2ccccc2)c1 [Compound 6, N-(1-Benzyl-1H-pyrazol-4-yl)acrylamide]	

The next lines start with the molecule.

SMILES	GSTO1–1 binding activity (in words) (GSTO1–1)	also measured
C=CC(=O)Nc1cnn(-c2ccccc2)c1 [Compound 5, N-(1-Phenyl-1H-pyrazol-4-yl)acrylamide]	inactive	
C=CC(=O)N(Cc1cc(C)no1)c1nc(-c2ccccc2O)cs1 [Compound 49, N-((3-Methylisoxazol-5-yl)methyl)-N-(4-(2-hydroxylphenyl)thiazol-2-yl)acrylamide]		stability in 20% acetonitrile/PBS buffer solution [1]: good stability
C=CC(=O)Nc1nc(-c2ccc(O)cc2)cs1 [Compound 25, N-(4-(4-Hydroxylphenyl)thiazol-2-yl)acrylamide]		IC50 (HCT116): 7.1 µM
C=CC(=O)N1CCC(c2ccccc2)CC1 [Compound 7, 1-(4-Phenylpiperidin-1-yl)prop-2-en-1-one]	did not possess significant GSTO1–1 binding activity	
C=CC(=O)N1CCC(Cc2ccccc2)CC1 [Compound 8, 1-(4-Benzylpiperidin-1-yl)prop-2-en-1-one]	did not possess significant GSTO1–1 binding activity	

Source: PMC8855368 (Journal of medicinal chemistry, 2019)
